This passage reports EC50 results from patent US9891239B2, “Modulators of pharmacokinetic properties of therapeutics” (Gilead Sciences, Inc., priority 2007, dated 2018).

The test system of the assay is wild-type HIV-1 strain IIIB. Put plainly: Anti-HIV-1 cell culture assay (EC50), XTT readout of cytopathic effect in MT2 cells. The format is cell-based. The conditions noted are these: Human immunodeficiency virus 1, IIIB, MT2, 120 h, read-out: protease inhibition activity represented by HIV EC50. The procedure: The assay is based on quantification of the HIV-1-associated cytopathic effect by a […] detection of the viability of virus-infected cells in the presence or absence of tested inhibitors. HIV-1-induced cell death was determined using a metabolic substrate 2,3-bis(2-methoxy-4-nitro-5-sulfophenyl)-2H-tetrazolium-5-carboxanilide (XTT) which is converted only by intact cells into a product with specific absorption characteristics as described by Weislow O S, Kiser R, Fine D L, Bader J, Shoemaker R H and Boyd M R, J. Natl. Cancer Inst. 81, 577 (1989) (herein incorporated by reference in its entirety for all purposes). […]
To determine the antiviral activity of the tested inhibitors, a substrate XTT solution (6 mL per assay plate) at a concentration of 2 mg/mL in a phosphate-buffered saline pH 7.4 was heated in water-bath for 5 min at 55° C. before 50 μl of N-methylphenazonium methasulfate (5 μg/mL) was added per 6 mL of XTT solution. […] Viability, as determined by the amount of XTT metabolites produced, was quantified spectrophotometrically by the absorbance at 450 nm (with subtraction of the background absorbance at 650 nm). […]
(Tetrazolium assays rely on reduction of a dye to a coloured formazan, in cell work by metabolically active cells.)

Molecules are shown by their SMILES. pEC50: −log10 of the molar value.

Usually pEC50 stands for −log10 of the EC50, conventionally taken in molar units. As to `CC(C)c1nc(CN(C)C(=O)N[C@@H](CCN2CCOCC2)C(=O)N[C@H](CC[C@H](Cc2ccccc2)NC(=O)OCc2cncs2)Cc2ccccc2)cs1` [Example S], the pEC50 was less than 4.52.
